According to the supplement of paper PMC10307832:

Key:
Test in all cases: relative viability (nuclei count vs DMSO), 5 days (fraction); higher = more cells survive
Axitinib + Vorinostat = compound: CNC(=O)c1ccccc1Sc1ccc2c(/C=C/c3ccccn3)n[nH]c2c1 [Axitinib] + O=C(CCCCCCC(=O)Nc1ccccc1)NO [Vorinostat] (partner 1 µM)
In short: (§1)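 One day after seeding in 1536-well plates, lung cancer cell lines were dosed by pin tool. Dosing was either single-drug or a fixed anchor-drug dose plus five library-drug doses (not always all listed) in √10 steps. After 5 days, nuclei were stained in one fix-and-stain step and counted on 4× images, and relative viability is the nuclei count of treated wells over that of vehicle wells, given as the median of duplicate plates.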

[1] = compound: CC1=CC=C(C=C1)C(=O)CN2C3=C(CCCC3)SC2=N [Pifithrin_alpha] + NC(=O)Nc1cc(-c2cccc(F)c2)sc1C(=O)N[C@H]1CCCNC1 [AZD7762] (partner 0.2 µM)
In short: as §1

[2] = compound: CC1=CC=C(C=C1)C(=O)CN2C3=C(CCCC3)SC2=N [Pifithrin_alpha] + O=C(CCCCCCC(=O)Nc1ccccc1)NO [Vorinostat] (partner 1 µM)
In short: as §1

[3] = compound: CC1=CC=C(C=C1)C(=O)CN2C3=C(CCCC3)SC2=N [Pifithrin_alpha] + O=C(c1cc(Cc2n[nH]c(=O)c3ccccc23)ccc1F)N1CCN(C(=O)C2CC2)CC1 [Olaparib] (partner 8 µM)
In short: as §1

Cell Line: LK-2
- relative viability (Axitinib + Vorinostat; first compound 0.005 µM): 0.343
- relative viability (Axitinib + Vorinostat; first compound 0.01581 µM): 0.292
- relative viability (Axitinib + Vorinostat; first compound 0.05 µM): 0.209
- relative viability (Axitinib + Vorinostat; first compound 0.1581 µM): 0.301
- relative viability (Axitinib + Vorinostat; first compound 0.5 µM): 0.232
- relative viability ([1]; first compound 1 µM): 0.301
- relative viability ([1]; first compound 3.162 µM): 0.571
- relative viability ([1]; first compound 10 µM): 0.58
- relative viability ([1]; first compound 100 µM): 0.346
- relative viability ([2]; first compound 1 µM): 0.29
- relative viability ([2]; first compound 3.162 µM): 0.257
- relative viability ([2]; first compound 10 µM): 0.255
- relative viability ([2]; first compound 31.62 µM): 0.256
- relative viability ([2]; first compound 100 µM): 0.353
- relative viability ([3]; first compound 1 µM): 0.554
- relative viability ([3]; first compound 3.162 µM): 0.833
- relative viability ([3]; first compound 10 µM): 0.933
- relative viability ([3]; first compound 100 µM): 0.776

Cell Line: EPLC-272H
- relative viability (Axitinib + Vorinostat; first compound 0.005 µM): 0.341
- relative viability (Axitinib + Vorinostat; first compound 0.01581 µM): 0.359
- relative viability (Axitinib + Vorinostat; first compound 0.05 µM): 0.498
- relative viability (Axitinib + Vorinostat; first compound 0.1581 µM): 0.481
- relative viability (Axitinib + Vorinostat; first compound 0.5 µM): 0.459
- relative viability ([1]; first compound 3.162 µM): 0.233
- relative viability ([1]; first compound 10 µM): 0.212
- relative viability ([1]; first compound 31.62 µM): 0.196
- relative viability ([1]; first compound 100 µM): 0.215
- relative viability ([2]; first compound 1 µM): 0.472
- relative viability ([2]; first compound 3.162 µM): 0.419
- relative viability ([2]; first compound 10 µM): 0.244
- relative viability ([2]; first compound 31.62 µM): 0.177
- relative viability ([2]; first compound 100 µM): 0.27
- relative viability ([3]; first compound 1 µM): 0.762
- relative viability ([3]; first compound 3.162 µM): 0.585
- relative viability ([3]; first compound 10 µM): 0.72
- relative viability ([3]; first compound 31.62 µM): 0.425
- relative viability ([3]; first compound 100 µM): 0.467

Cell Line: NCI-H441
- relative viability (Axitinib + Vorinostat; first compound 0.005 µM): 0.78
- relative viability (Axitinib + Vorinostat; first compound 0.01581 µM): 0.659
- relative viability (Axitinib + Vorinostat; first compound 0.05 µM): 0.855
- relative viability (Axitinib + Vorinostat; first compound 0.1581 µM): 0.627
- relative viability (Axitinib + Vorinostat; first compound 0.5 µM): 0.911
- relative viability ([1]; first compound 1 µM): 1.34
- relative viability ([1]; first compound 3.162 µM): 1.16
- relative viability ([1]; first compound 10 µM): 1.3
- relative viability ([1]; first compound 100 µM): 1.06
- relative viability ([2]; first compound 1 µM): 0.766
- relative viability ([2]; first compound 3.162 µM): 0.735
- relative viability ([2]; first compound 10 µM): 0.876
- relative viability ([2]; first compound 100 µM): 0.931
- relative viability ([3]; first compound 1 µM): 0.608
- relative viability ([3]; first compound 3.162 µM): 0.673
- relative viability ([3]; first compound 10 µM): 0.468
- relative viability ([3]; first compound 100 µM): 0.542

Cell Line: NCI-H23
- relative viability (Axitinib + Vorinostat; first compound 0.005 µM): 0.644
- relative viability (Axitinib + Vorinostat; first compound 0.01581 µM): 0.51
- relative viability (Axitinib + Vorinostat; first compound 0.05 µM): 0.674
- relative viability (Axitinib + Vorinostat; first compound 0.1581 µM): 0.583
- relative viability (Axitinib + Vorinostat; first compound 0.5 µM): 0.667
- relative viability ([1]; first compound 1 µM): 0.229
- relative viability ([1]; first compound 3.162 µM): 0.279
- relative viability ([1]; first compound 10 µM): 0.265
- relative viability ([1]; first compound 31.62 µM): 0.172
- relative viability ([1]; first compound 100 µM): 0.268
- relative viability ([2]; first compound 1 µM): 0.457
- relative viability ([2]; first compound 3.162 µM): 0.4
- relative viability ([2]; first compound 10 µM): 0.604
- relative viability ([2]; first compound 31.62 µM): 0.343
- relative viability ([2]; first compound 100 µM): 0.584
- relative viability ([3]; first compound 1 µM): 0.248
- relative viability ([3]; first compound 3.162 µM): 0.249
- relative viability ([3]; first compound 10 µM): 0.223
- relative viability ([3]; first compound 31.62 µM): 0.191
- relative viability ([3]; first compound 100 µM): 0.177

Cell Line: NCI-H647
- relative viability (Axitinib + Vorinostat; first compound 0.005 µM): 0.63
- relative viability (Axitinib + Vorinostat; first compound 0.01581 µM): 0.71
- relative viability (Axitinib + Vorinostat; first compound 0.05 µM): 0.572
- relative viability (Axitinib + Vorinostat; first compound 0.1581 µM): 0.548
- relative viability (Axitinib + Vorinostat; first compound 0.5 µM): 0.605
- relative viability ([1]; first compound 3.162 µM): 0.368
- relative viability ([1]; first compound 10 µM): 0.307
- relative viability ([1]; first compound 31.62 µM): 0.361
- relative viability ([1]; first compound 100 µM): 0.287
- relative viability ([2]; first compound 1 µM): 0.514
- relative viability ([2]; first compound 3.162 µM): 0.565
- relative viability ([2]; first compound 10 µM): 0.592
- relative viability ([2]; first compound 31.62 µM): 0.482
- relative viability ([2]; first compound 100 µM): 0.53
- relative viability ([3]; first compound 1 µM): 0.531
- relative viability ([3]; first compound 3.162 µM): 0.44
- relative viability ([3]; first compound 10 µM): 0.531
- relative viability ([3]; first compound 31.62 µM): 0.217
- relative viability ([3]; first compound 100 µM): 0.492

Cell Line: LXF-289
- relative viability (Axitinib + Vorinostat; first compound 0.005 µM): 0.777
- relative viability (Axitinib + Vorinostat; first compound 0.01581 µM): 0.74
- relative viability (Axitinib + Vorinostat; first compound 0.05 µM): 0.791
- relative viability (Axitinib + Vorinostat; first compound 0.1581 µM): 0.716
- relative viability (Axitinib + Vorinostat; first compound 0.5 µM): 0.732
- relative viability ([1]; first compound 1 µM): 1.16
- relative viability ([1]; first compound 3.162 µM): 1.12
- relative viability ([1]; first compound 10 µM): 1.23
- relative viability ([1]; first compound 31.62 µM): 1.12
- relative viability ([1]; first compound 100 µM): 1.13
- relative viability ([2]; first compound 1 µM): 0.718
- relative viability ([2]; first compound 3.162 µM): 0.805
- relative viability ([2]; first compound 10 µM): 0.79
- relative viability ([2]; first compound 31.62 µM): 0.662
- relative viability ([2]; first compound 100 µM): 0.782
- relative viability ([3]; first compound 1 µM): 1.16
- relative viability ([3]; first compound 3.162 µM): 0.994
- relative viability ([3]; first compound 10 µM): 1.1
- relative viability ([3]; first compound 31.62 µM): 0.717
- relative viability ([3]; first compound 100 µM): 1.16

Cell Line: NCI-H596
- relative viability (Axitinib + Vorinostat; first compound 0.005 µM): 0.764
- relative viability (Axitinib + Vorinostat; first compound 0.01581 µM): 0.627
- relative viability (Axitinib + Vorinostat; first compound 0.05 µM): 0.576
- relative viability (Axitinib + Vorinostat; first compound 0.1581 µM): 0.558
- relative viability (Axitinib + Vorinostat; first compound 0.5 µM): 0.575
- relative viability ([1]; first compound 1 µM): 1.18
- relative viability ([1]; first compound 3.162 µM): 0.967
- relative viability ([1]; first compound 10 µM): 0.926
- relative viability ([1]; first compound 31.62 µM): 0.939
- relative viability ([1]; first compound 100 µM): 1.03
- relative viability ([2]; first compound 1 µM): 0.594
- relative viability ([2]; first compound 3.162 µM): 0.603
- relative viability ([2]; first compound 10 µM): 0.603
- relative viability ([2]; first compound 31.62 µM): 0.585
- relative viability ([2]; first compound 100 µM): 0.65
- relative viability ([3]; first compound 1 µM): 0.634
- relative viability ([3]; first compound 3.162 µM): 0.589
- relative viability ([3]; first compound 10 µM): 0.679
- relative viability ([3]; first compound 31.62 µM): 0.492
- relative viability ([3]; first compound 100 µM): 0.513
